Reference: patent US5707815A, “Mammalian monocyte chemoattractant protein receptors and assays using them” (Regents of the University of California, priority 1995, dated 1998)
Entries after “also recorded” stand apart in the source; their conditions may differ.

Legend:
MM6 cells = test: MCP-1 induced calcium flux in MM6 cells (calcium efflux assay); format: cell-based, human
Description: (§1) Because monocytes are difficult to isolate in usable quantity and express less than 2000 high affinity MCP-1 binding sites per cell, a cultured cell line that responded well to MCP-1 had to be identified. Using the calcium effiux assay as described in Vu, Cell 64:1057-68(1991), MCP-1 induced calcium fluxes in various cell lines were measured. […] In contrast, a dose-dependent calcium flux was detected in MM6 cells, with half maximal stimulation at 4nM MCP-1.

MIP-1α/RANTES receptor = test: Ca45 efflux assay in Xenopus oocytes, MIP-1α/RANTES receptor examined in parallel; format: cell-based
MCP-1 receptor = test: Total inositol phosphate accumulation in MCP-1 receptor transfected 293 cells; format: cell-based, human; conditions: 293 cells stably expressing recombinant MCP-1 receptor
Description: Inositol (1,4,5)-triphosphate (IP3) mobilizes intracellular calcium in response to activation of a wide spectrum of receptors, including many seven-transmembrane-domain receptors. Hung, J. Ceil. Biol. 116:827-32 (1992); Putney, Trends Endocrinol. Metab. 5:256-60 (1994). To investigate this mobilization, total inositol phosphate accumulation was determined as described in Hung, J. Cell Biol. 116:827-32 (1992). HEK-293 cells were grown until confluent in 24-well tissue culture dishes and labeled overnight with 2 uCi/ml [^3 H]myo-inositol (23 Ci/mmol) (New England Nuclear, Boston, Mass.) in inositol-free MEM-EBSS supplemented with 10% dialyzed FCS. Following labeling, the media were removed and the cells were incubated at room temperature for 5-10 min in 0.5 ml of serum-free MEM-EBSS media supplemented with 10 mM HEPES, 1 mg/ml BSA, and 10 mM LiCl. […] The incubation was terminated by removal of the incubation media and addition of 1 ml of ice-cold 20 mM formic acid. Plates were incubated at 4° C. for 30 min before the supernatants were applied to 1-ml Dowex AG1-X8 (100-200 mesh, formate form, from Sigma) chromatography columns. Columns were washed with 8 ml of water followed by 5 ml of 40 mM sodium formate. Total [^3 H]inositol phosphates were eluted with 5 ml of 2M ammonium formate/0.1M formic acid and quantitated by liquid scintillation spectroscopy. […]

[1] = test system: human erythroleukemia (HEL) cells; test: MCP-1 induced calcium flux in HEL cells; format: cell-based
Description: as §1

[2] = test system: undifferentiated human HL-60 cells; test: MCP-1 induced calcium flux in HL-60 cells; format: cell-based; conditions: undifferentiated HL-60 cells
Description: as §1

[3] = test system: untransfected or pcDNA3 transfected 293 cell controls; test: cAMP formation in untransfected or pcDNA3 transfected 293 cell controls; format: cell-based, human; conditions: cells without receptor
MCP-1RB receptor = test: Intracellular calcium mobilization (indo-1) in stably transfected MCP-1RB/293 cells; format: cell-based, human; conditions: MCP-1RB/293 cells
Description: Calcium mobilization in 293 cells was then investigated. Transfected HEK-293 cells were grown until confluent, trypsinized briefly, washed with phosphate buffered saline containing 1 mg/ml BSA (PBS-BSA), and resuspended in serum-free MEM-EBSS supplemented with 1 mg/ml BSA and 10 mM HEPES (pH 7.0) at a density of 2×10^7 cells/ml. The cells were incubated in the dark at 37° C. for 20 min in the presence of 5-10 μg/ml indo-1 AM (Molecular Probes, Inc., Eugene, Oreg.). Nine volumes of PGS-BSA were added, and the cells were incubated for an additional 10 min at 37° C., pelleted by centrifugation, and washed twice with 50 ml of the PBS-BSA solution. Washed, indo-1-loaded cells were then resuspended in Hank's Balanced Salt Solution (1.3 mM Ca^2+) supplemented with 1 mg/ml BSA (HBS-BSA) at a density of approximately 0.5×10^6 cells/ml at room temperature. To measure intracellular calcium ([Ca^2+ ]i), 0.5 ml of the cell suspension was placed in a quartz cuvette in a Hitachi F-2000 fluorescence spectrophotometer. […] Intracellular calcium was measured by excitation at 350 nm and fluorescence emission detection at 490 nm (F1) and 410 nm (F2) wavelengths. The [Ca^2+ ]i was estimated by comparing the 490/410 fluorescence ratio after agonist application (R) to that of calibration ratios measured at the end of each run, according to the equation:
[Ca^2+ ]i =Kd ×[(R--Rmin)/(Rmax
where Rmax and Rmin represent the fluorescence ratio under saturating (1.3 mM Ca^2+) and nominally free (10 mM EGTA, Sigma Chemical Co.) calcium conditions, Kd is the dissociation constant of calcium for indo-1, R is the fluorescence ratio, and Sf2/Sb2 is the fluorescence ratio of free and bound indo-1 dye at 410 nm. See Thomas, AP and Delaville, F (1991) in Cellular Calcium, a Practical Approach, Oxford Univ. Press, pp. 1-54.
To quantirate calcium responses, MCP-1 dose response curves were generated in each experiment and the results were expressed as a percent of the maximum calcium signal (at 300 nM MCP-1) measured in that experiment. The changes in [Ca^2+ ]i levels in response to each concentration of agonist were determined by subtracting the baseline from peak [Ca^2+ ]i levels, which were determined by averaging 5 seconds of data prior to agonist addition and surrounding the peak response, respectively. In experiments done to determine the role of extracellular calcium, 3 mM EGTA was added 60-90 seconds prior to MCP-1. […] All experiments were performed at room temperature.
Inhibition of MCP-1RB receptor activation by bordetella pertussis toxin was investigated. Pertussis toxin (List Biological Labs, Inc., Campbell, Calif.) was dissolved in 0.01M sodium phosphate, pH 7.0, 0.05M sodium chloride and diluted into normal serum containing media at final concentrations of 0.1 ng/ml to 100 ng/ml, and incubated with cells overnight (14-16 h) at 37° C. The conditions of the Pertussis toxin treatment of the 293 cells were identical for calcium fluorimetric and adenylyl cyclase experiments. In the adenylyl cyclase experiments, the Pertussis toxin was added at the same time as [^3 H]adenine.
Dose response curves generated in the calcium fluorimetric and adenylyl cyclase inhibition assays were fit by a nonlinear least squares program to the logistic equation:
Effect=max effect/[1+(EC50 /(agonist)^n)]
where n and EC50 represent the Hill coefficient and the agonist concentration that elicited a half-maximal response, respectively, and were derived from the fitted curve. Curve fitting was done with the computer program "Prism" (by Graph Pad, San Diego, Calif.). Results represent the mean ±SE. The 95% confidence intervals (CI) of the EC50 and IC50 values, when given, were calculated from the log EC50 and IC50 values, respectively.

monocyte chemoattractant protein-1 [MCP-1]
EC50 (MM6 cells; dose-dependent calcium flux, read-out: half maximal stimulation of calcium flux): 4 nM | effect of prior exposure to the chemokine on the calcium response to the other chemokine (MM6 cells; label = chemokine given first, MCP-1 versus RANTES (or MIP-1α)): partially blocked | receptor signaling in response to chemokine (MIP-1α/RANTES receptor): not to MCP-1 | hydrolysis of PI (phosphatidylinositol) (MCP-1 receptor): little, if any | MCP-1 induced calcium flux [1]: No calcium flux was detected | MCP-1 induced calcium flux [2]: No calcium flux was detected | effect on cAMP formation [3]: neither stimulated nor inhibited | concentration giving small but reproducible calcium signals (MCP-1RB receptor): 100 pM | homologous desensitization to a second challenge with MCP-1 (MCP-1RB receptor): refractory to activation by a second challenge; also recorded: desensitized the cells to a second addition | time to peak of calcium transients after addition (MCP-1RB receptor): 4 to 8 s | EC50 (MCP-1RB receptor; average of four full dose-response curves): 2 to 4 nM
